For the assay, the target named is PDEδ (Homo sapiens, UniProt O43924). The assay is described as follows: competitive fluorescence polarization displacement assay. Type of assay: binding. On the procedure:
The Kd values were determined by the fluorescence polarization competition-binding assay, which we developed before.
In general terms: In fluorescence polarisation assays a small probe gives low polarisation when free and higher when bound to something large.

Drawing on PMC4843002, “Identification of pyrazolopyridazinones as PDEδ inhibitors” (Nature Communications, 2016), this text covers Kd for ten molecules.

As for `Cc1c(Cl)cccc1NC(=O)CCCn1nc(C)c2c(C)n(-c3ccccc3)nc2c1=O` [2a], binding was put at a Kd of 5 ± 2 nM. To `Cc1nn(CCCC(=O)NCc2ccco2)c(=O)c2nn(-c3ccccc3)c(C)c12` [2b] belongs 136 ± 55 nM; to `Cc1nn(CCCC(=O)NCc2ccccc2)c(=O)c2nn(-c3ccccc3)c(C)c12` [2c], 42 ± 15 nM. Regarding `COc1ccc(CNC(=O)CCCn2nc(C)c3c(C)n(-c4ccccc4)nc3c2=O)cc1` [2d], the Kd – broadly, the concentration at which binding is half-saturated – came out at 81 ± 21 nM.

In the case of `Cc1ccc(CNC(=O)CCCn2nc(C)c3c(C)n(-c4ccccc4)nc3c2=O)cc1` [2e], the affinity, expressed as Kd, was 96 ± 14 nM. To `Cc1nn(CCCC(=O)NCCc2ccccc2)c(=O)c2nn(-c3ccccc3)c(C)c12` [2f] belongs 29 ± 7 nM. To `Cc1ccc(-n2nc3c(=O)n(CCCC(=O)NCc4ccco4)nc(C)c3c2C)cc1` [2g] belongs 50 ± 16 nM; to `Cc1ccc(-n2nc3c(=O)n(CCCC(=O)NCc4ccccc4)nc(C)c3c2C)cc1` [2h], 17 ± 9 nM.

Molecule `Cc1ccc(-n2nc3c(=O)n(CCCC(=O)NCCc4ccccc4)nc(C)c3c2C)cc1` [2i] gave a Kd of 6 ± 2 nM. To `Cc1ccc(CCNC(=O)CCCn2nc(C)c3c(C)n(-c4ccc(C)cc4)nc3c2=O)cc1` [2j] belongs 5 ± 3 nM.
